Data as given in ChEMBL document CHEMBL5715945 (Cancer Biol Ther, 2010).
Active and inactive are the calls of the source. No cut-off for these calls is given here.

How the values were obtained:
[1] = Metabolic stability in human liver microsomes assessed as half life; assay type: ADME, Microsome
[2] = molecular target: Proto-oncogene tyrosine-protein kinase receptor Ret (Homo sapiens) (UniProt P07949); assay: Inhibition of Ret (unknown origin) at 1 uM relative to control; values are per cent of control
4T1 [3] = assay: Inhibition of colony formation in mouse 4T1 cells assessed as reduction in cell number measured after 10 days by phase contrast microscopy analysis; assay type: functional, cell-based; conditions: dose 0.4-1 µM, time 10.0 day
4T1 [4] = assay: Inhibition of colony formation in mouse 4T1 cells assessed as reduction in cell number by measuring minimum inhibitory effect at 0.2 uM measured after 10 days by phase contrast microscopy analysis; assay type: functional, cell-based; conditions: time 10.0 day
[5] = molecular target: Rho-associated protein kinase 1 (Homo sapiens) (UniProt Q13464); assay: Inhibition of ROCK1 (unknown origin) at 0.1 uM relative to control; values are per cent of control
Rho-associated protein kinase 1 (Homo sapiens), sequence (Q13464 2-1354 limits assumed): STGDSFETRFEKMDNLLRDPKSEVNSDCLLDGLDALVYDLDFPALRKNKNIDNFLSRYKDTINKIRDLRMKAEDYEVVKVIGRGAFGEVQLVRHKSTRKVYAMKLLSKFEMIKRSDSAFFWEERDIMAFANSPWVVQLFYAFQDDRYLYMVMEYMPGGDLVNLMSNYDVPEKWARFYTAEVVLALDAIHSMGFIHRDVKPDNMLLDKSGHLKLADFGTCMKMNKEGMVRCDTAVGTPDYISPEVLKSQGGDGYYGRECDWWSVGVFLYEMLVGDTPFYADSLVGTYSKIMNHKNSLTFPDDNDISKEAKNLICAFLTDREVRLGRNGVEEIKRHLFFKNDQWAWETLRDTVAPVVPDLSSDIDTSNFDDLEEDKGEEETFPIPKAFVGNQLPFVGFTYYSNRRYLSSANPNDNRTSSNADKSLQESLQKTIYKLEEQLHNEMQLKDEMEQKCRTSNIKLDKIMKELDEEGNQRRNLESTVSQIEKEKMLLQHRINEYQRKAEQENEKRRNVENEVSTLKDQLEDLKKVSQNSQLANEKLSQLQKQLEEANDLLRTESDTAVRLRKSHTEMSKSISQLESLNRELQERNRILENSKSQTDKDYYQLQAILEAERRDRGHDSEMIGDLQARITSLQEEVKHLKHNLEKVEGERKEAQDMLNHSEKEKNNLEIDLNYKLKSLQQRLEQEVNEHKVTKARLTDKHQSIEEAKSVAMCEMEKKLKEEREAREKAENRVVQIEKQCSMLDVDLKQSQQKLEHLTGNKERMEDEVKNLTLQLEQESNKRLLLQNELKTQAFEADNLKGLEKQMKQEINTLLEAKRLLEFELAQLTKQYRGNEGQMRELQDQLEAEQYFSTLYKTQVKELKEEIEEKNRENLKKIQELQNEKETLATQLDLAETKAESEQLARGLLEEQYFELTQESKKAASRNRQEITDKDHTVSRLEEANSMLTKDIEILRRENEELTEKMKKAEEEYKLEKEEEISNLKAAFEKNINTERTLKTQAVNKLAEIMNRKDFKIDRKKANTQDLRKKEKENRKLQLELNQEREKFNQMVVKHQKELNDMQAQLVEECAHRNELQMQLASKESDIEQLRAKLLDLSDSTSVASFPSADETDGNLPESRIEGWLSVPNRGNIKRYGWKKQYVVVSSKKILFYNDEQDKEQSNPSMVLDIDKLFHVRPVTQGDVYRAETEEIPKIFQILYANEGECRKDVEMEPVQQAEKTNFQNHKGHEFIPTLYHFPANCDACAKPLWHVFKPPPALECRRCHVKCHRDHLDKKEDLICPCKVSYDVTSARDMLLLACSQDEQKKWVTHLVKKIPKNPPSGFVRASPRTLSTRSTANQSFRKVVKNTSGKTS

[6] = molecular target: Tyrosine-protein kinase Lck (Homo sapiens) (UniProt P06239); assay: Inhibition of Lck (unknown origin) at 0.1 uM relative to control; values are per cent of control
Tyrosine-protein kinase Lck (Homo sapiens), sequence (P06239 2-509 limits assumed): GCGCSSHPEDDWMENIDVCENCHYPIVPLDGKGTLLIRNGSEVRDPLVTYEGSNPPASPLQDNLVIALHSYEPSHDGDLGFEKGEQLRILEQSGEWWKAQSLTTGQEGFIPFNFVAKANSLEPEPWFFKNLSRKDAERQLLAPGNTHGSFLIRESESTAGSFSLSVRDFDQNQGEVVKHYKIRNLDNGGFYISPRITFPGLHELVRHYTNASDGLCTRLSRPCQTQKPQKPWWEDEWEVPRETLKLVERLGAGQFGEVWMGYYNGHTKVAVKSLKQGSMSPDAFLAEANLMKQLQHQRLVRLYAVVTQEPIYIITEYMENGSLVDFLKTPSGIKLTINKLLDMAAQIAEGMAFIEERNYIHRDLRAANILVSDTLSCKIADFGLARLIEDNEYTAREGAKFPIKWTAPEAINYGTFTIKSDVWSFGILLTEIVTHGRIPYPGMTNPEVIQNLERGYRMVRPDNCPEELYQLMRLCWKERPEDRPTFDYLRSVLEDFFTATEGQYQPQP

[7] = molecular target: Vascular endothelial growth factor receptor 2 (Homo sapiens) (UniProt P35968); assay: Inhibition of KDR (unknown origin) at 1 uM relative to control; values are per cent of control
[8] = molecular target: Tyrosine-protein kinase Fyn (Homo sapiens) (UniProt P06241); assay: Inhibition of Fyn (unknown origin) at 1 uM relative to control; values are per cent of control
Tyrosine-protein kinase Fyn (Homo sapiens), sequence (P06241 2-537 limits assumed): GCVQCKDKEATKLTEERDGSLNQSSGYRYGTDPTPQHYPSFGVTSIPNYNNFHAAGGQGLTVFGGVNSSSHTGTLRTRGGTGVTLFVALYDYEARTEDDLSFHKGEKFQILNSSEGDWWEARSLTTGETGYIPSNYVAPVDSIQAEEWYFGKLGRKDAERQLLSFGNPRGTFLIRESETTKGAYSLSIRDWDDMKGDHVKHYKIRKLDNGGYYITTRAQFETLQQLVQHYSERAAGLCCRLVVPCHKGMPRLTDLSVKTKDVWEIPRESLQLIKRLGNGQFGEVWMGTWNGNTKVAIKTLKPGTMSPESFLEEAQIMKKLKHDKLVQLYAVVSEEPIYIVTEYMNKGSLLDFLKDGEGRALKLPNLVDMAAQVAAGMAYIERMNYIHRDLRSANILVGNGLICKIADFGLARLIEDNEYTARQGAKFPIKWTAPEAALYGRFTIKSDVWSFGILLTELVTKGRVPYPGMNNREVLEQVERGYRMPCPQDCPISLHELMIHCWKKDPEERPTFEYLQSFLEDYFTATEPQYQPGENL

[9] = molecular target: Serine/threonine-protein kinase Chk1 (Homo sapiens) (UniProt O14757); assay: Inhibition of CHK1 (unknown origin) at 0.1 uM relative to control; values are per cent of control
Serine/threonine-protein kinase Chk1 (Homo sapiens), sequence (O14757 whole entry): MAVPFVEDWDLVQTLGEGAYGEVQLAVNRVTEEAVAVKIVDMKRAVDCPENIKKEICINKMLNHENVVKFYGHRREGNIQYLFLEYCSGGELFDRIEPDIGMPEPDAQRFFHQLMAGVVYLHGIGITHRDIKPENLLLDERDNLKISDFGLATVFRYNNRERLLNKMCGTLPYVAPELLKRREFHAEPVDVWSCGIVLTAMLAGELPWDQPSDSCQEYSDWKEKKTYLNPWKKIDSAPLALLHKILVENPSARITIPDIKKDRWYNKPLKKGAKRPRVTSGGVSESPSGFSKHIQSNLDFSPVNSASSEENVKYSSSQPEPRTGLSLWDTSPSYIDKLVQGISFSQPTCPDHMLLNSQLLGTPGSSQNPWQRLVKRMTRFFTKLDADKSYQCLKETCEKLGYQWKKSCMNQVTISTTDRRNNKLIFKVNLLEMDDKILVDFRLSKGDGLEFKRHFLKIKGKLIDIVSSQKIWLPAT

[10] = molecular target: Death-associated protein kinase 1 (Homo sapiens) (UniProt P53355); assay: Inhibition of DAPK1 (unknown origin) at 0.1 uM relative to control; values are per cent of control
[11] = molecular target: ALK tyrosine kinase receptor (Homo sapiens) (UniProt Q9UM73); assay: Inhibition of ALK (unknown origin) at 0.1 uM relative to control; values are per cent of control
4T1 [12] = assay: Induction of cell cycle arrest in mouse 4T1 adherent cells assessed as accumulation at S phase at 1 uM measured after 72 hrs by PI staining based flow cytometry analysis (reference value: 15.3%); assay type: functional
[13] = molecular target: Mitogen-activated protein kinase 1 (Homo sapiens) (UniProt P28482); assay: Inhibition of MAPK1 (unknown origin) at 1 uM relative to control; values are per cent of control
[14] = molecular target: Focal adhesion kinase 1 (Mus musculus) (UniProt P34152); assay: Inhibition of FAK phosphorylation at Y397 residue in mouse 4T1 suspended cells at 0.1 uM incubated for 24 hrs by immunoblotting analysis; assay type: cell-based
Focal adhesion kinase 1 (Mus musculus), sequence (P34152 whole entry): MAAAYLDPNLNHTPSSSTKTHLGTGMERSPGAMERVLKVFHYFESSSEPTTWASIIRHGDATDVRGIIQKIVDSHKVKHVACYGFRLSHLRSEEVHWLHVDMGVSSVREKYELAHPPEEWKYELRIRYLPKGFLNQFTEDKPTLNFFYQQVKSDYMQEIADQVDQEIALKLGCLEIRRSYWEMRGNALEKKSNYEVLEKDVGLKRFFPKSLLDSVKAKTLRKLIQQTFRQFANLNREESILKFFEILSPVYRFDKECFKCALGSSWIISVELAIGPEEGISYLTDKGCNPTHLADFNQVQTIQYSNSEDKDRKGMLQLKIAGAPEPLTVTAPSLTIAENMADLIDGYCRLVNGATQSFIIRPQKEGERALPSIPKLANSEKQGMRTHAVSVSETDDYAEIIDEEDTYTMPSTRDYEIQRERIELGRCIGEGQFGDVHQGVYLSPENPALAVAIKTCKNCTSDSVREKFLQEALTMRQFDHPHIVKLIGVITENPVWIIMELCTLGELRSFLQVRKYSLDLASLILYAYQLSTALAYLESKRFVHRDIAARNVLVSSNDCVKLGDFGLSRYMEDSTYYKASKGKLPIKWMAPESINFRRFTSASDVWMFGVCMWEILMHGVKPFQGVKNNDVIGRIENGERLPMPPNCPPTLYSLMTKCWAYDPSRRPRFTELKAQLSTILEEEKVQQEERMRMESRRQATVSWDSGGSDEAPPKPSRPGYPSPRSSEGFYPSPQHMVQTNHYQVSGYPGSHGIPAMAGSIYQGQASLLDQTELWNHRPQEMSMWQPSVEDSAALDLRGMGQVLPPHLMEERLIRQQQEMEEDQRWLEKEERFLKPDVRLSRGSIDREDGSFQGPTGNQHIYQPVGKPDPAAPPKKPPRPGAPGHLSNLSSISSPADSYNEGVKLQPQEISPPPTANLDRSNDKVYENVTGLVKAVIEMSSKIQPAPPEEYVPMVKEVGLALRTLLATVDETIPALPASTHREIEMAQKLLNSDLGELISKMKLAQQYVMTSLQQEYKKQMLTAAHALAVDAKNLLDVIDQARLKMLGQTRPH

4T1 [15] = assay: Induction of apoptosis in mouse 4T1 cells assessed as increase in cell shrinkage at 0.4 to 1 uM measured after 2 days by phase contrast microscopy analysis; assay type: functional, cell-based; conditions: dose 0.4-1 µM, time 2.0 day
ID8 [16] = assay: Antitumor activity against mouse ID8 cells implanted in C57BL6 mouse assessed as reduction in number of ascites-associated cells at 0.5 mg/ml administered as solution in 5% sucrose measured after 30 days; assay type: functional, cell-based; conditions: time 30.0 day
[17] = molecular target: Dual specificity mitogen-activated protein kinase kinase 1 (Homo sapiens) (UniProt Q02750); assay: Inhibition of MEK1 (unknown origin) at 1 uM relative to control; values are per cent of control
Dual specificity mitogen-activated protein kinase kinase 1 (Homo sapiens), sequence (Q02750 whole entry): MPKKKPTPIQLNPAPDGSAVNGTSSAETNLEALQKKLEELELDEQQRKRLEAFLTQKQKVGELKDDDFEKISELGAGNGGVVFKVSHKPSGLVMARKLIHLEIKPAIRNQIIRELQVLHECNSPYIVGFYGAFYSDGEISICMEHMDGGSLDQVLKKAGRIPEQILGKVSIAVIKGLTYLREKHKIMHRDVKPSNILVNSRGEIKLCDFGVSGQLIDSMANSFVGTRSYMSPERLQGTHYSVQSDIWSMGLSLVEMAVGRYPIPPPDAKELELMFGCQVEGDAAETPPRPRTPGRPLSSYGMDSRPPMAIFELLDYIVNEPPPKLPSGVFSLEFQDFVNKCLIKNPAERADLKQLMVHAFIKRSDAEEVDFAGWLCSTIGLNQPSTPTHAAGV

[18] = molecular target: Focal adhesion kinase 1 (Mus musculus) (UniProt P34152); assay: Inhibition of FAK phosphorylation at Y397 residue in mouse 4T1 adherent cells cultured as 3D spheroids at 0.1 to 1 uM incubated for 24 hrs by immunoblotting analysis; assay type: cell-based; conditions: dose 0.1-1 µM
[19] = molecular target: Mast/stem cell growth factor receptor Kit (Homo sapiens) (UniProt P10721); assay: Inhibition of c-kit (unknown origin) at 0.1 uM relative to control; values are per cent of control
4T1 [20] = assay: Induction of apoptosis in mouse 4T1 adherent cells at 1 uM incubated for 72 hrs by PI staining based flow cytometry analysis; assay type: functional, cell-based
[21] = molecular target: Aurora kinase A (Homo sapiens) (UniProt O14965); assay: Inhibition of Aurora-A (unknown origin) at 0.1 uM relative to control; values are per cent of control
Aurora kinase A (Homo sapiens), sequence (O14965 whole entry): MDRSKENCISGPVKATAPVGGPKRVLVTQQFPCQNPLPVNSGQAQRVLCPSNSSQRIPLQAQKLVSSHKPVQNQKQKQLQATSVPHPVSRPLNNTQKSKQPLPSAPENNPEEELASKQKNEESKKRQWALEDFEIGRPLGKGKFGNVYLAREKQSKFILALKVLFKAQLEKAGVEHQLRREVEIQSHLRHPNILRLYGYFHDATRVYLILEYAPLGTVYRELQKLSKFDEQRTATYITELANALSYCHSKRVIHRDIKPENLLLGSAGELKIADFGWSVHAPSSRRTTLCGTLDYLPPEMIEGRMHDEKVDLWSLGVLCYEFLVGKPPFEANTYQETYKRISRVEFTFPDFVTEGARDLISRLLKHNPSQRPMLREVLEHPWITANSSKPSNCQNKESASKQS

ID8 [22] = assay: Antitumor activity against mouse ID8 cells implanted in C57BL6 mouse assessed as inhibition of FAK phosphorylation at Y397 residue at 0.5 mg/ml administered as solution in 5% sucrose measured after 30 days by immunoblotting analysis; assay type: functional, cell-based; conditions: time 30.0 day
4T1 [23] = assay: Induction of apoptosis in mouse 4T1 adherent cells upto 0.1 uM incubated for 24 hrs by annexin V staining based flow cytometry analysis; assay type: functional, cell-based
Homo sapiens [24] = organism: Homo sapiens; assay: Inhibition of p70S6K (unknown origin) at 1 uM relative to control; values are per cent of control
4T1 [25] = assay: Induction of cell cycle arrest in mouse 4T1 adherent cells assessed as accumulation at G0/G1 phase at 1 uM measured after 72 hrs by PI staining based flow cytometry analysis (reference value: 81.3%); assay type: functional
4T1 [26] = assay: Induction of apoptosis in mouse 4T1 suspended cells at 0.1 to 0.4 uM incubated for 24 hrs by annexin V staining based flow cytometry analysis; assay type: functional; conditions: dose 0.1-0.4 µM
[27] = molecular target: Aurora kinase A (Homo sapiens) (UniProt O14965); assay: Inhibition of Aurora-A (unknown origin) at 1 uM relative to control
[28] = Toxicity in C57BL6 mouse implanted with mouse ID8 cells assessed as adverse effects at 0.5 mg/ml administered as solution in 5% sucrose measured after 30 days; assay type: cell-based; conditions: id8, 720 h, time 30 day
4T1 [29] = assay: Effect on p130Cas phosphorylation at Tyr249 residue in mouse 4T1 cells harbouring mCherry red fluorescent protein at 0.1 to 1 uM incubated for 1 hr by immunoblotting analysis; assay type: functional, cell-based; conditions: dose 0.1-1 µM
[30] = molecular target: Tyrosine-protein kinase JAK2 (Homo sapiens) (UniProt O60674); assay: Inhibition of JAK2 (unknown origin) at 1 uM relative to control; values are per cent of control
4T1 [31] = assay: Induction of cell cycle arrest in mouse 4T1 adherent cells assessed as accumulation at G2/M phase at 1 uM measured after 72 hrs by PI staining based flow cytometry analysis (reference value: 7.9%); assay type: functional
Homo sapiens [32] = organism: Homo sapiens; assay: Inhibition of CDK2/cyclin A (unknown origin) at 0.1 uM relative to control; values are per cent of control

## CNC(=O)c1ccccc1Nc1cc(Nc2ccc(N3CCOCC3)cc2OC)ncc1C(F)(F)F [VS-4718]
[1]
  half-life: 32 min
[2]
  residual activity: 67%
4T1 [3]
  inhibition: Dose-Dependent Effect
4T1 [4]
  inhibition: Active
[5]
  residual activity: 96%
[6]
  residual activity: 76%
[7]
  residual activity: 107%
[8]
  residual activity: 78%
[9]
  residual activity: 109%
[10]
  residual activity: 104%
[11]
  residual activity: 145%
4T1 [12]
  Activity: 23.8%
[13]
  residual activity: 58%
[14]
  inhibition: Active
4T1 [15]
  Activity: Active
ID8 [16]
  Activity: Active
[17]
  residual activity: 79%
[18]
  inhibition: Active
[19]
  residual activity: 119%
4T1 [20]
  Activity: Active
[21]
  residual activity: 69%
ID8 [22]
  Activity: Active
4T1 [23]
  Activity: inactive
Homo sapiens [24]
  residual activity: 97%
4T1 [25]
  Activity: 84.4%
4T1 [26]
  Activity: 50%
[27]
  inhibition: 8%
[28]
  Activity: Non-Toxic
4T1 [29]
  Activity: inactive
[30]
  residual activity: 96%
4T1 [31]
  Activity: 10.5%
Homo sapiens [32]
  residual activity: 91%
